# PubChem BioAssay AID1996
# Details: buffer; pH 7.4; 200.0 µM
row,SMILES,solubility kinetic
1,COc1ccc(-c2noc(=O)n2Cc2ccccc2F)cc1,29.6 µg/mL
2,Cc1cc(SCC(=O)NC2CCCCC2)nc2ccccc12,1.2 µg/mL
3,Cn1c(SCC(=O)NCC2COc3ccccc3O2)nnc1C(F)(F)F (stereo unspecified),> 58.3 µg/mL
4,CC1(C)CC(NCCC(c2ccccc2)c2ccco2)CCO1 (stereo unspecified),44.5 µg/mL
5,CC(=O)Nc1ccc(/C=C(\C#N)C(N)=O)cc1,16.8 µg/mL
6,CC1CCCC(C)N1C(=O)CN1c2cccc3cccc(c23)S1(=O)=O (stereo unspecified),6.7 µg/mL
7,CC1(C)CN(C(Cc2ccccc2)C(N)=O)C1=O (stereo unspecified),> 36.9 µg/mL
8,O=C(Nc1ncccn1)c1ccc([N+](=O)[O-])cc1,36.5 µg/mL
9,OCCC1CN(C/C=C/c2ccco2)CCN1Cc1ccccc1 (stereo unspecified),40 µg/mL
10,CC(Sc1cccc[n+]1[O-])C(=O)Nc1cc(Cl)c(Cl)cc1Cl (stereo unspecified),53.5 µg/mL
11,CC(=O)CC(c1ccccc1)S(=O)(=O)c1ccc([N+](=O)[O-])cc1 (stereo unspecified),> 50 µg/mL
12,O=C(NCCCCc1ccccc1)c1ccccc1Cl,> 43.2 µg/mL
13,COc1ccc2oc(=N)c(C(=O)Nc3ccc(C)cc3)cc2c1,0.6 µg/mL
14,COc1ccc(S(=O)(=O)NCc2c(-c3ccccc3)noc2C)c(OC)c1,4.4 µg/mL
15,COc1ccc(C2NC(=S)NC3=C2N2CCC3CC2)cc1 (stereo unspecified),> 45.2 µg/mL
16,COc1ccc(CCC(=O)NCC23CC4CC(CC(C4)C2)C3)cc1,30.7 µg/mL
17,O=C(CSC(=S)N1CCCC1)NCCc1ccccc1,> 46.3 µg/mL
18,O=C(COc1ccc(C(=O)c2ccccc2)cc1)Nc1cccnc1,> 49.9 µg/mL
19,Cc1cc(C)cc(-n2c(C)nc3cc(C(=O)O)ccc32)c1,35 µg/mL
20,CC1CC(C)(C)NC(=S)N1CC(=O)NCc1ccc(F)cc1 (stereo unspecified),41.5 µg/mL
21,O=C(O)c1ccc(-c2ccccc2)[nH]c1=O,> 32.3 µg/mL
22,N#CCCN(CCC#N)C(=S)NC1CC2C=CC1C2 (stereo unspecified),> 41.2 µg/mL
23,Cc1cccnc1NC(=O)C(C)N1C(=O)c2ccccc2C1=O (stereo unspecified),> 46.4 µg/mL
24,CC(=O)N1CC(=O)Nc2ccc(C)cc2C1c1ccccc1 (stereo unspecified),> 44.2 µg/mL
25,O=C(NCc1ccco1)c1cc(Cl)nc(Cl)c1,40.3 µg/mL

row,SMILES,solubility kinetic
1,Nc1n[nH]c(N)c1N=Nc1ccc(F)cc1,> 33 µg/mL
2,O=C(Cc1ccc(Cl)c(Cl)c1)N1CCOCC1,> 41.1 µg/mL
3,N#C/C(=C\c1ccc(O)cc1)C(=O)NCc1ccccc1,2.4 µg/mL
4,CN1CCC(N(C)S(=O)(=O)c2ccc(NC(=O)c3ccc(S(=O)(=O)N(C)C)cc3)cc2)CC1,> 74.2 µg/mL
5,Cc1ccc(-c2cc(C(=O)NCC(c3ccccc3)N(C)C)c3ccccc3n2)o1 (stereo unspecified),31.1 µg/mL
6,COc1ccc(C(=O)Nc2cccc(S(=O)(=O)NCc3ccco3)c2)cc1,8.7 µg/mL
7,CCn1c(=O)c2c(nc(SCC(=O)NC3CCCC3)n2C)n(C)c1=O,> 54.8 µg/mL
8,O=C1C2C3C=CC(C4CC34)C2C(=O)N1c1cccc2ccccc12 (stereo unspecified),42.7 µg/mL
9,COc1ccccc1C(=O)N(Cc1ccccc1)c1ccc(C)cc1,24.1 µg/mL
10,O=[N+]([O-])C1=CC=C2C(=NC3(CCCCC3)N2O)C1=NCCO,> 45.9 µg/mL
11,O=C(NCc1ccco1)c1ccc(Cn2c(=S)[nH]c3ccccc3c2=O)cc1,0.4 µg/mL
12,CC1(C)C2CCC1(C)C(OC(=O)C[n+]1ccccc1)C2.[Cl-] (stereo unspecified),39 µg/mL
13,O=C(NC1=NCCS1)c1ccccc1Br,> 42.8 µg/mL
14,CCOc1ncccc1C(=O)NCC(c1ccccc1)N(C)C (stereo unspecified),> 47 µg/mL
15,O=c1[nH]sc2cc(F)ccc12,22.7 µg/mL
16,CS(=O)(=O)c1ccc(C(=O)NCC2(N3CCOCC3)CCCCC2)cc1,> 57.1 µg/mL
17,O=S(=O)(c1ccc(Cl)cc1)N1CCCc2ccccc21,3.7 µg/mL
18,Nc1ccc(S(=O)(=O)N2CCCC2)cc1Cl,> 39.1 µg/mL
19,O=S(=O)(Nc1ccccc1)c1cccc2nsnc12,39.8 µg/mL
20,O=C(NCc1ccccc1)N1CCN(c2ccccc2)CC1,16.2 µg/mL
21,COc1ccccc1-c1cc(-c2ccc(O)cc2)nc(N)c1C#N,3.7 µg/mL
22,COc1ccc(NC2=NC(C)(C)CS2)cc1,31.4 µg/mL
23,Cn1c(=O)c2c(nc(Oc3ccccc3N)n2C)n(C)c1=O,> 45.2 µg/mL
24,CC(=O)Nc1ccc(Oc2ccc(NC(C)=O)c(NC(C)=O)c2)cc1,> 51.2 µg/mL
25,CCOc1ccc(C2=CSC3=NCCN23)cc1Cl,25 µg/mL

row,SMILES,solubility kinetic
1,CC(=O)Nc1ccc(C(=O)OCc2ccccc2Br)cc1,< 0.7 µg/mL
2,CCOc1cc(C2NC(=O)c3ccccc3O2)ccc1OC(C)C (stereo unspecified),14.1 µg/mL
3,COC(=O)[C@H](CCSC)NC(=O)c1cccnc1SC,38.8 µg/mL
4,CC1C(=O)Nc2ccccc2N1C(=O)c1ccc(Cl)cc1 (stereo unspecified),27.4 µg/mL
5,O=C(O)/C=C/C(=O)N1CCN(C(c2ccccc2)c2ccccc2)CC1,> 52.6 µg/mL
6,Cc1csc(SCC(=O)Nc2nccs2)n1,> 40.7 µg/mL
7,CCN(CC)CC#CC(OC)(c1ccccc1)c1ccccc1.Cl,29.5 µg/mL
8,CC(NC(=O)c1ccccc1F)c1ccccc1 (stereo unspecified),> 36.5 µg/mL
9,CCC(C)N1C(=O)CN(C2CCCCCC2)C(=O)C1c1ccccc1F (stereo unspecified),19.6 µg/mL
10,Cc1nccc(-c2ccc3c(c2)OCO3)n1,30.3 µg/mL
11,Clc1cc(-c2ccccc2)nc(-c2ccccc2)n1,< 0.3 µg/mL
12,COc1ccc(-n2c(-c3ccccc3)nc3ccccc3c2=O)cc1,3.3 µg/mL
13,CCn1c(/C=C2\C(=O)N(C(C)C)c3ccccc32)nc2ccccc2c1=O,22.2 µg/mL
14,CC1CCCC(NC(=O)c2ccc3c(c2)OCCO3)C1C (stereo unspecified),> 43.4 µg/mL
15,CC(C)NC(=O)NNc1c(Cl)cncc1Cl,> 39.5 µg/mL
16,N#C/C(=C\c1cccs1)C(=O)c1ccccc1,26.3 µg/mL
17,Cc1ccc2nc(NC(=O)C3CC3C)sc2c1 (stereo unspecified),2.4 µg/mL
18,CCCN1C(=S)c2ccccc2C1c1ccccc1 (stereo unspecified),8.8 µg/mL
19,NC(=S)Nc1cccc(F)c1,> 25.5 µg/mL
20,Nc1ccc(-c2nc3cc([N+](=O)[O-])ccc3o2)cc1,1.1 µg/mL
21,O=[N+]([O-])c1cc(CSC2=NCCN2)ccc1O,37.1 µg/mL
22,CCN(CC)S(=O)(=O)c1ccc(-c2csc(C)n2)cc1,37.3 µg/mL
23,Cc1cc(NCCCN(C)C)n2c(nc3ccccc32)c1C#N,> 46.1 µg/mL
24,O=C(CCNC(=O)c1ccccc1)NCCc1ccc(Cl)cc1,6.9 µg/mL
25,Cc1ccccc1NC(=O)N1CCc2ccccc2C1,> 40 µg/mL

# Now from value to compound:
row,solubility kinetic,SMILES
1,> 55.7 µg/mL,COc1cccc(CNC(=O)CCCC(=O)Nc2cccc([N+](=O)[O-])c2)c1
2,> 37 µg/mL,Cc1cccc(NC(=O)N2CCCCCC2)c1C
3,2.2 µg/mL,COc1cccc(NC(=O)Cc2ccc3ccccc3c2)c1
4,48.4 µg/mL,COc1cccc(N2CCC(N3CCN(C)C(CCO)C3)CC2)c1 (stereo unspecified)
5,43.2 µg/mL,Cc1ccc(OC(=O)CCC(=O)Nc2ccc(C)c(C)c2)cc1
6,35.6 µg/mL,Cc1ccccc1NC(=O)CSc1nc(O)cc(=O)n1C
7,< 0.7 µg/mL,Cn1cc(C=C2C(=O)OC3(CCCCC3)OC2=O)c2ccccc21
8,45.8 µg/mL,Nc1nonc1C(=O)NCCNC(=O)c1cccc(Cl)c1
9,7.9 µg/mL,Cc1ccc(C(=O)Nc2c[nH]c(=O)[nH]c2=O)cc1
10,39.6 µg/mL,CC(=O)Nc1ccc(C(=O)NCCCOC(C)C)cc1
11,29.5 µg/mL,Clc1ccc(Cl)c(OCCCCN2CCCCC2)c1
12,49.1 µg/mL,CC(=O)Nc1ccc(NC(=O)CCCn2cnc3ccccc3c2=O)cc1
13,< 0.6 µg/mL,COC(=O)c1sccc1NC(=O)c1cccc(Cl)c1
14,40.8 µg/mL,O=S(=O)(NCCN1CCCC1)c1ccc(Cl)cc1
15,46.5 µg/mL,CCOC(=O)COc1c(Cl)cc(/C=C2\N=C(C)OC2=O)cc1OC
16,> 49.5 µg/mL,O=C(Cc1ccc(Cl)cc1Cl)OCC(=O)N1CCCCC1
17,7.8 µg/mL,CC(C)c1ccc(NC(=O)COC(=O)CC2CCCC2)cc1
18,> 47.8 µg/mL,COc1ccc2nc(-c3ccccc3)cc(C(=O)N3CCC3)c2c1
19,> 39.6 µg/mL,CCOC(=O)N1CCN(c2ccccc2OC)CC1
20,41.2 µg/mL,COC(=O)c1onc(-c2c(Cl)cccc2Cl)c1C(=O)OC
21,13.7 µg/mL,Cc1cnc(C(=O)OCC(=O)c2c[nH]c3ccccc23)cn1
22,6.7 µg/mL,COc1ccc(/C=C/C(=O)N2CCCc3ccccc32)c(OC)c1
23,20 µg/mL,Cc1ccc(SCC(=O)NC(=O)NC(C)C)c(C)c1

row,solubility kinetic,SMILES
1,> 50.2 µg/mL,CC(=O)Nc1ccc2nc(NC(=O)CN3CCOCC3)sc2c1
2,> 33.2 µg/mL,COc1ccccc1NC(=O)/C=C/C(=O)O
3,3.4 µg/mL,Cc1ccsc1C(=O)OCC(=O)Nc1cccc(F)c1
4,41.4 µg/mL,COCCn1c(N)c(Sc2ccccc2)c(=O)[nH]c1=O
5,2.1 µg/mL,Cc1nc(NC(=O)C2CC2)sc1C(=O)Nc1ccccc1Cl
6,> 44.4 µg/mL,O=C(COC(=O)c1ccc([N+](=O)[O-])o1)NC1CCCCC1
7,2.7 µg/mL,CN1C(=O)/C(=C/c2cn(CC(=O)N3CCCCC3)c3ccccc23)NC1=S
8,> 48.1 µg/mL,COc1ccc(S(=O)(=O)N2CCCN(C)CC2)cc1.Cl
9,> 42.3 µg/mL,O=C(O)c1[nH]c2ccc([N+](=O)[O-])cc2c1-c1ccccc1
10,> 45.7 µg/mL,COc1ccccc1C(=O)NCCC(=O)N1CCCC(C)C1 (stereo unspecified)
11,3.8 µg/mL,Cc1ccc(NC(=O)CCCc2c[nH]c3ccccc23)nc1
12,> 53.1 µg/mL,COc1cccc(OC)c1CN(C)C(=O)c1cnccc1C(F)(F)F
13,> 39.5 µg/mL,CCc1ccc(NC(=S)N2CCN(C)CC2)cc1
14,< 0.4 µg/mL,COc1ccccc1C(=O)Nc1nc2cc3c(cc2s1)OCO3
15,9.8 µg/mL,CC1CCCCC1NC(=O)COC(=O)c1ccc2c(c1)NC(=O)CS2 (stereo unspecified)
16,> 47.2 µg/mL,COc1ccc(Cl)cc1NC(=S)N1CC(C)OC(C)C1 (stereo unspecified)
17,2.7 µg/mL,Cc1cc(C(=O)Nc2ccc(Cl)cc2)c(C)n1Cc1cccs1
18,> 45 µg/mL,COc1ccc(NC(=O)[C@@H](NC(N)=O)C(C)C)cc1Cl
19,18.1 µg/mL,COC(=O)c1c(-c2ccccc2)noc1C
20,> 50 µg/mL,O=C(CSc1ccc(-c2ccc(F)cc2)nn1)N1CCOCC1
21,> 42.6 µg/mL,CCc1ccc(C(=O)COC(=O)c2cnc(C)cn2)cc1
22,36.1 µg/mL,C/C(=C/c1ccccc1)C(=O)N1CCN(c2ccc(F)cc2)CC1
23,54.6 µg/mL,COC(=O)c1[nH]c2cccc(OC)c2c1NC(=O)CCN1CCSCC1
